Test results as given in the supplement of paper PMC10307832.

The cell lines below were run with CCOC1=CC=CC=C1N=NC2=C(NN(C2=O)C3=NC(=CS3)C4=CC=CC=C4)C [BAM7] + O=C(c1cc(Cc2n[nH]c(=O)c3ccccc23)ccc1F)N1CCN(C(=O)C2CC2)CC1 [Olaparib] (partner 8 µM) (assay: relative viability (nuclei count vs DMSO), 5 days (fraction); higher = more cells survive). Details: first compound 5 µM.
How it was run: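 Each reported value is a median over duplicate plates. It expresses relative viability: treated-well nuclei count divided by vehicle-well nuclei count. Lung cancer cell lines in 1536-well plates were dosed by pin tool a day after seeding, alone with one drug or with a fixed anchor-drug dose plus five library-drug doses (not always all listed) in √10 steps, and nuclei were counted after 5 days.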

First: NCI-H1355
Second: NCI-H3122
The relative viability of the first is higher: 0.725 for the first, 0.579 for the second.

Compared with NCI-H1437, NCI-H1755 is higher in relative viability: 0.546 for the first, 0.939 for the second.

Going from HCC-15 to NCI-H1793, the relative viability rises from 0.695 to 0.882.

Compared with PC-14, EKVX is higher in relative viability: 0.216 for the first, 0.929 for the second.

Going from LC-2-ad to NCI-H1944, the relative viability falls from 0.633 to 0.391.

Compared with NCI-H1975, RERF-LC-KJ is lower in relative viability: 0.617 for the first, 0.3 for the second.

ABC-1 was tested, and the relative viability was 1.25.

Same assay, conditions: first compound 15.81 µM

Going from LU99A to BEN, the relative viability rises from 0.312 to 0.809.

Compared with HARA, HCC-78 is lower in relative viability: 0.827 for the first, 0.631 for the second.

Going from NCI-H322M to A-427, the relative viability rises from 0.654 to 0.756.

Going from NCI-H441 to NCI-H1734, the relative viability rises from 0.561 to 0.599.

Compared with NCI-H460, NCI-H2347 is higher in relative viability: 0.327 for the first, 0.625 for the second.

Compared with NCI-H1395, 201T is higher in relative viability: 0.445 for the first, 0.691 for the second.

Compared with NCI-H1915, HCC-827 is higher in relative viability: 0.223 for the first, 0.62 for the second.

First: LXF-289
Second: NCI-H23
The relative viability of the first is higher: 1.02 for the first, 0.258 for the second.

Compared with NCI-H647, NCI-H1651 is lower in relative viability: 0.549 for the first, 0.198 for the second.

Compared with EPLC-272H, NCI-H1792 is lower in relative viability: 0.594 for the first, 0.391 for the second.

Going from NCI-H1355 to NCI-H3122, the relative viability falls from 0.679 to 0.416.

First: NCI-H1437
Second: NCI-H1755
The relative viability of the first is lower: 0.526 for the first, 0.858 for the second.

Going from HCC-15 to NCI-H1793, the relative viability rises from 0.687 to 0.791.

First: PC-14
Second: EKVX
The relative viability of the first is lower: 0.161 for the first, 0.839 for the second.

Going from LC-2-ad to NCI-H1944, the relative viability falls from 0.634 to 0.326.

First: NCI-H1975
Second: RERF-LC-KJ
The relative viability of the first is higher: 0.393 for the first, 0.288 for the second.

ABC-1 gave a relative viability of 0.638.

Same assay, conditions: first compound 50 µM

First: LU99A
Second: BEN
The relative viability of the first is lower: 0.254 for the first, 1.04 for the second.

First: HARA
Second: HCC-78
The relative viability of the first is lower: 0.809 for the first, 0.815 for the second.

First: NCI-H322M
Second: LCLC-97TM1
The relative viability of the first is higher: 0.641 for the first, 0.432 for the second.

Compared with A-427, NCI-H441 is lower in relative viability: 0.762 for the first, 0.574 for the second.

Going from NCI-H1734 to NCI-H460, the relative viability falls from 0.609 to 0.344.

First: NCI-H2347
Second: NCI-H1395
The relative viability of the first is higher: 0.601 for the first, 0.425 for the second.

Going from 201T to NCI-H1915, the relative viability falls from 0.765 to 0.259.

Compared with HCC-827, LXF-289 is higher in relative viability: 0.649 for the first, 1.09 for the second.

Compared with NCI-H23, NCI-H647 is higher in relative viability: 0.291 for the first, 0.524 for the second.

Compared with NCI-H1651, EPLC-272H is higher in relative viability: 0.175 for the first, 0.651 for the second.

Going from NCI-H1792 to NCI-H1355, the relative viability rises from 0.425 to 0.718.

Compared with NCI-H3122, NCI-H1437 is lower in relative viability: 0.53 for the first, 0.492 for the second.

First: NCI-H1755
Second: HCC-15
The relative viability of the first is higher: 0.899 for the first, 0.728 for the second.

First: NCI-H1793
Second: PC-14
The relative viability of the first is higher: 0.95 for the first, 0.234 for the second.

Compared with EKVX, LC-2-ad is lower in relative viability: 0.788 for the first, 0.646 for the second.

Going from NCI-H1944 to NCI-H1975, the relative viability rises from 0.436 to 0.602.

Compared with RERF-LC-KJ, ABC-1 is higher in relative viability: 0.304 for the first, 0.559 for the second.
